Experimental data: patent publication US9126984B2, “4-(indol-3-yl)-pyrazole derivatives, pharmaceutical compositions and methods for use” (ITEOS THERAPEUTICS, priority 2013, dated 2015)

Legend:
[1] = target: T1, murine mastocytoma P815 cells overexpressing hTDO2 (Homo sapiens, UniProt P48775); experiment: Cellular assay for TDO2 activity determination; type: cell-based; conditions: P815 cells overexpressing hTDO2, overnight incubation at 37° C., kynurenine absorbance at 480 nm
T1 construct: expressed in transfected cells; host or cells: murine mastocytoma P815 cells
Description: The assay was performed in 96-well flat bottom plates seeded with murine mastocytoma P815 cells overexpressing hTDO2 (prepared as described in Pilotte et al., PNAS, 2012, 109(7), 2497-2502), at a concentration of 5×10^4 cells/well in a final volume of 200 μL. To determine TDO or IDO activity, the cells were incubated overnight at 37° C. at 5% CO2 in IMDM (Invitrogen) supplemented with 2% FBS and 2% penicillin/streptomycin in the presence of the compounds of the present invention, at different concentrations.
The plates were then centrifuged 5 min at 1000 rpm, and 100 μL of the supernatant were collected in a conical plate, 30 uL of TCA 30% were added and a further centrifugated at 3000×g for 10 minutes. 100 μL of the supernatant were collected in a flat bottomed plate and 100 μL of 2% (w/v) 4-(dimethylamino)-benzaldehyde in acetic acid and incubated for 5 min at room temperature. Kynurenine concentrations were determined by measuring the absorbance at 480 nm. A standard curve was made with pure kynurenine. The TDO activity was measured as described above using ten serial concentrations of the compounds of the present invention. Data were fitted using the Prism software (GraphPad Software, Inc.).

[2] = target: T2, human recombinant TDO2 enzyme (Homo sapiens, UniProt P48775); experiment: Assay for TDO2 enzymatic activity determination; type: biochemical; conditions: human recombinant TDO2, L-Trp 1 mM, room temperature one hour, kynurenine absorbance at 480 nm
T2 construct: made in house
Description: To measure the TDO2 activity, the reaction mixture contained (final concentrations) potassium phosphate buffer (50 mM, pH 7.5), ascorbic acid (0.25 M), methylene blue (0.125 μM), catalase (40 units/mL, from bovine liver, Sigma), and human recombinant TDO2 enzyme (prepared as described in Dolusic et al. J. Med. Chem.; 2011, 54, 5320-5334; 0.9 μg) without or with the compounds of the present invention embodiments at the indicated concentrations (total volume 112.5 μL). The reaction was initiated by the addition of 37.5 μL of L-Trp (final concentration 1 mM) at room temperature. The reaction was conducted at room temperature during one hour and stopped by the addition of 30 μL of 30% (w/v) trichloroacetic acid.
To convert N-formylkynurenine into kynurenine, the reaction mixture was incubated at 65° C. for 30 min. Then 150 μL of the reaction mixture was mixed with 120 μL, of 2.5% (w/v) 4-(dimethylamino)-benzaldehyde in acetic acid and incubated for 5 min at room temperature. Kynurenine concentrations were determined by measuring the absorbance at 480 nm. A standard curve was made with pure kynurenine. The TDO activity was measured as described above using ten serial concentrations of certain embodiments of the compounds of the present invention. Data were fitted using the Prism software (GraphPad Software, Inc.).

T1 sequence (P48775 whole entry): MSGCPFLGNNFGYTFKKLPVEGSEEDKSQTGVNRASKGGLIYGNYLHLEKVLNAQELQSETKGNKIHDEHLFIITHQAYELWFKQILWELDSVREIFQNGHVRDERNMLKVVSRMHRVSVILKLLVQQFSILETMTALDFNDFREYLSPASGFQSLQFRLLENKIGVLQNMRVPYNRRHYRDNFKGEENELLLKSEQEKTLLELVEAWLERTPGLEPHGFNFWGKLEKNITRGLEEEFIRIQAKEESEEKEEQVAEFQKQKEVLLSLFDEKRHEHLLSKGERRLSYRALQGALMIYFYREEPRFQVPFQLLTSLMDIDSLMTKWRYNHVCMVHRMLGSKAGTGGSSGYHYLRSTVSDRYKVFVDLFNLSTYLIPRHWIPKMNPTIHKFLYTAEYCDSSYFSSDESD
T2 sequence (P48775 whole entry): as above

Row | SMILES | melting point | IC50 [1] | IC50 [2]
1 | CC(Cn1cc(-c2c[nH]c3cc(F)ccc23)cn1)C(N)=O (single isomer, unassigned) [Example 35, 3-(4-(6-fluoro-1H-indol-3-yl)-1H-pyrazol-1-yl)-2-methylpropanamide] | 184.5 to 185.5 °C | < 1000 nM | 1000 to 10000 nM
2 | NC(=O)CCn1cc(-c2c[nH]c3cc(F)ccc23)cn1 [Example 7, 3-(4-(6-fluoro-1H-indol-3-yl)-1H-pyrazol-1-yl)propanamide] | 173.3 to 175 °C | < 1000 nM | < 1000 nM
3 | CNCCn1cc(-c2c[nH]c3cc(F)ccc23)cn1 [Example 24, 2-(4-(6-fluoro-1H-indol-3-yl)-1H-pyrazol-1-yl)-N-methylethanamine] | 94.2 to 95.2 °C | 1000 to 10000 nM | < 1000 nM
4 | CS(=O)(=O)CCn1cc(-c2c[nH]c3cc(F)ccc23)cn1 [Example 31, 6-fluoro-3-(1-(2-(methylsulfonyl)ethyl)-1H-pyrazol-4-yl)-1H-indole] | 153.3 to 155.1 °C | < 1000 nM | 1000 to 10000 nM
5 | Fc1cc2[nH]cc(-c3cnn(CC4CCNCC4)c3)c2cc1F [Example 44, 5,6-difluoro-3-(1-(piperidin-4-ylmethyl)-1H-pyrazol-4-yl)-1H-indole] | 167.1 to 168.9 °C | < 1000 nM | 1000 to 10000 nM
6 | Fc1ccc2c(-c3cnn(CC4CCOCC4)c3)c[nH]c2c1 [Example 58, 6-fluoro-3-(1-((tetrahydro-2H-pyran-4-yl)methyl)-1H-pyrazol-4-yl)-1H-indole] | 138.9 to 139.6 °C | 1000 to 10000 nM | 1000 to 10000 nM
7 | O=S1(=O)CCC(Cn2cc(-c3c[nH]c4cc(F)ccc34)cn2)CC1 [Example 60, 4-((4-(6-fluoro-1H-indol-3-yl)-1H-pyrazol-1-yl)methyl)tetrahydro-2H-thiopyran 1,1-dioxide] | 193.1 to 194.1 °C | 1000 to 10000 nM | 1000 to 10000 nM
8 | Fc1ccc2c(-c3cnn(C4CCNCC4)c3)c[nH]c2c1 [Example 78, 6-fluoro-3-(1-(piperidin-4-yl)-1H-pyrazol-4-yl)-1H-indole] | 240.1 to 241.8 °C | < 1000 nM | 1000 to 10000 nM
9 | CC(=O)N1CCC(n2cc(-c3c[nH]c4cc(F)ccc34)cn2)CC1 [Example 89, 1-(4-(4-(6-fluoro-1H-indol-3-yl)-1H-pyrazol-1-yl)piperidin-1-yl)ethanone] | 183.2 to 184.5 °C | < 1000 nM | 1000 to 10000 nM
10 | CN(C)C(=O)N1CCC(n2cc(-c3c[nH]c4cc(F)ccc34)cn2)CC1 [Example 90, 4-(4-(6-fluoro-1H-indol-3-yl)-1H-pyrazol-1-yl)-N,N-dimethylpiperidine-1-carboxamide] | 223 to 224.6 °C | – | 1000 to 10000 nM
11 | CN1CCC(n2cc(-c3c[nH]c4cc(F)ccc34)cn2)CC1 [Example 91, 6-fluoro-3-(1-(1-methylpiperidin-4-yl)-1H-pyrazol-4-yl)-1H-indole] | 222.8 to 223.7 °C | < 1000 nM | 1000 to 10000 nM
